From patent US20110020359A1, “METHODS AND COMPOSITIONS FOR TREATING NEURONAL DAMAGE OR DEGENERATION” (California Institute of Technology, priority 2009, published 2011)

B1: EfnB1: Ephrin B1, ligand that activates Eph receptors (protein, UniProt P98172 28-346, looked up)
Ephrin-B1: LAKNLEPVSWSSLNPKFLSGKGLVIYPKIGDKLDIICPRAEAGRPYEYYKLYLVRPEQAAACSTVLDPNVLVTCNRPEQEIRFTIKFQEFSPNYMGLEFKKHHDYYITSTSNGSLEGLENREGGVCRTRTMKIIMKVGQDPNAVTPEQLTTSRPSKEADNTVKMATQAPGSRGSLGDSDGKHETVNQEEKSGPGASGGSSGDPDGFFNSKVALFAAVGAGCVIFLLIIIFLTVLLLKLRKRHRKHTQQRAAALSLSTLASPKGGSGTAGTEPSDIIIPLRTTENNYCPHYEKVSGDYGHPVYIVQEMPPQSPANIYYKV
B2: EfnA3: Ephrin A3, ligand that activates Eph receptors (protein, UniProt P52797 23-214, looked up)
Ephrin-A3: QGPGGALGNRHAVYWNSSNQHLRREGYTVQVNVNDYLDIYCPHYNSSGVGPGAGPGPGGGAEQYVLYMVSRNGYRTCNASQGFKRWECNRPHAPHSPIKFSEKFQRYSAFSLGYEFHAGHEYYYISTPTHNLHWKCLRMKVFVCCASTSHSGEKPVPTLPQFTMGPNVKINVLEDFEGENPQVPKLEKSISG

Columns and labels:
[1] = test system: dissociated rat P5-9 CGN cultures; experiment: Cerebellar granule neuron (CGN) neurite outgrowth assay; type: cell-based; conditions: PD98059 25; AG1478 15 nM; Y27632 5 μM; JNK inhibitor II 10 μM
Protocol: Nitric acid-treated, 15-mm round German glass coverslips are coated with P-Orn in pH 6-8.5 borate buffer (at approximately 50 μg/ml) for about 1 hr at 37° C. and 5% CO2. CSPGs (at approximately 1 μg/ml) or polysaccharides enriched in the CS-A, CS-C, or CS-E sulfation motifs (at approximately 1 μg/ml) are coated on the P-Orn-coated coverslips overnight at 37° C. and 5% CO2. Cerebella from P5-9 Sprague Dawley rats are dissected, purified as described above, and cultured on the coated coverslips at a cell density of about 200 cells/mm^2. Neurons are grown in DMEM/F12, 1% FBS, and N1 supplement for about 24 hr.
In one example, inhibitors against MEK (PD98059, 25 μM; Calbiochem), EGFR (AG1478, 15 nM; Calbiochem), ROCK (Y27632, 5 μM; Calbiochem) and JNK (JNK Inhibitor II, 10 μM; Calbiochem) are added in solution at the start of culturing, and neurons are grown for 24 hr. For neurite outgrowth experiments from p75 knockout mice, cerebella from P5-7 mice, either C57BL/6 wild-type or p75−/− knockout mice, are dissected and purified as described above. Neurons are plated at a density of 200-300 cells/mm2 and cultured for about 24 hr. Cells are then fixed in 4% PFA/10% sucrose, immunostained with neuronal specific anti-class III β-tubulin antibody (TUJ1; Covance), and evaluated for neurite outgrowth. Neurons are imaged using a Nikon TE2000-S fluorescent microscope and quantified using the NIH software Image J. Statistical analysis is performed using the one-way ANOVA; n=50-200 cells per experiment.
P7 rat CGNs are grown for 24 hours on CS-E (1 μg/ml) in the presence of the CS-E antibody (CS-E Ab; 10 μg/ml).

[2] = Carbohydrate microarray, binding to CS-E
Protocol: The concentrations of the solutions range from 250 nM to 40 μM, and are calibrated to one another using the carbazole assay for uronic acid residue. A given concentration of each polysaccharide is spotted five to ten times at different positions on the array. A boundary is created around the polysaccharide spots on the slides using a hydrophobic slide marker (Super Pap Pen, Research Products International) and the slides are blocked with 5-10% fetal bovine serum (FBS) in PBS with gentle rocking at 37 ° C. for about 1 hr, followed by a brief rinse with PBS. Human NgR-Fc or mouse EphB2-Fc (R & D Systems) is reconstituted in 1% BSA in PBS, added to the bound region on the slides in 100 μl quantities at a concentration of 1-2 μM, and incubated at room temperature for about 3 hr. The slides are briefly rinsed three times with PBS, and then incubated with a goat anti-human IgG antibody conjugated to Cy3 (1:5000 in PBS) for 1 hr in the dark with gentle rocking. After rinsing two times with PBS and once with H2O, the microarray is analyzed at 532 nm using a GenePix 5000a scanner, and fluorescence quantification is performed using GenePix 6.0. Binding of the anti-CS-E antibody is evaluated using 100 μl of a 1 μg/ml (˜7 nM) solution of antibody and a goat anti-mouse IgG secondary antibody conjugated to Cy3 (1:5000 in PBS). […]

[3] = Surface plasmon resonance, binding to CS-E-enriched polysaccharides; conditions: SPR; read-out: dissociation constant (Kd)
Protocol: Surface plasmon resonance experiments can be used to provide quantitative measurements of the binding kinetics or affinity between two or more molecules such as proteins, peptides, and small molecules. All experiments are performed on a Biacore T100 at 25° C. using a Sensor Chip CM5 with a running buffer composed of 0.01 M HEPES, pH 7.4, 0.15 M NaCl, 3 mM EDTA, 0.05% Surfactant P20 (HBS-EP^+). To analyze the binding of anti-CS-E antibody to the CS-E tetrasaccharide, both control and active flow cells are exposed to a 1:1 mixture of N-hydroxysuccinimide hydroxysuccinimide (NHS) and 1-ethyl-3,3-dimethylaminopropyl-carbodiimide (EDC) for 1-10 min at a flow rate of about 10 μL·min^−1. […] The kinetics of the anti-CS-E antibody/CS-E tetrasaccharide interaction is determined by approximately 300 s long injections of anti-CS-E antibody at about 30 μL·min^−1. The dissociation is monitored for about 900 s before the surface is regenerated with a 30 s injection of 6 M guanidine HCl. […] Affinity analysis is measured by injecting the antibody for about 3600 s at 5 μL·min^−1. […] The data is analyzed by plotting the response at equilibrium versus concentration and fitting the resulting curve to the Langmuir equation. […]
In another example, utilizing the surface plasmon resonance methods described, data was generated to quantify measurements of the binding kinetics between CS-E and the binding partner EphA4. […]

Molecule | rescue of CS-E- and CSPG-mediated inhibition of neurite outgrowth [1] | binding to CS-E-enriched polysaccharides on carbohydrate microarrays [2] | Kd [3] [nM]
COc1cc2ncnc(Nc3cccc(Cl)c3)c2cc1OC [AG1478] | rescue |  | 
O=C1c2ccccc2-c2n[nH]c3cccc1c23 [JNK inhibitor II] | no effect |  | 
COc1cccc(-c2cc(=O)c3ccccc3o2)c1N [PD98059] | rescue |  | 
C[C@@H](N)[C@H]1CC[C@H](C(=O)Nc2ccncc2)CC1 [Y27632] | rescue |  | 
B1 |  | selectively bind | 138
B2 |  | selectively bind | 65
